Measured values as given in patent US10590128B2, “6,7,8,9-tetrahydro-5H-pyrido[2,3-d]azepine dopamine D3 ligands” (Pfizer Inc., priority 2016, dated 2020).

Experiments:
[1] = target: human dopamine D2 receptor (hD2R) (Homo sapiens, UniProt P14416); assay: Human D2 receptor binding assay ([^3H]-Spiperone); details: CHO cells expressing hD2R, geometric mean of 2-5 determinations unless marked b (single determination)
Procedure: (§1) Human D2 Receptor and Human D3 Receptor Binding Assays:
(§2) These determined ligand and tissue concentrations were utilized in time course studies to determine linearity and equilibrium conditions for binding. […] The hD2R assay buffer contains 50 mM Tris (pH 7.4 @ 37° C.), 100 mM NaCl and 1 mM MgCl2. The hD3R assay buffer consists of 50 mM Tris (pH 7.4 at 37° C.), 120 mM NaCl, 5 mM MgCl2, 5 mM KCl and 2 mM CaCl2. Competitive binding experiments were initiated by the addition of 200 μL of the respective cell homogenate to 96-well plates containing […] test drugs (10 concentrations using ½ log dilutions) and 50 μL of ^3H-radioligand for a final volume of 250 μL. Non-specific binding was determined by radioligand binding in the presence of a saturating concentration of Haldol (10 μM). After the 20 minute incubation at 37° C., assay samples were rapidly filtered through Unifilter-96 GF/B PEI-coated filter plates and rinsed with ice-cold 50 mM Tris buffer (pH 7.4 at 4° C.). […] The IC50 value (concentration at which 50% inhibition of specific binding occurs) was calculated by linear regression of the concentration-response data in ActivityBase. Ki values were then calculated according to the Cheng-Prusoff equation:
(§3) [formula] where [L]=concentration of free radioligand and Kd=dissociation constant of radioligand for D3 receptor or D2 receptor.

[2] = target: human dopamine D3 receptor (hD3R) (Homo sapiens, UniProt P35462); assay: Human D3 receptor binding assay ([^3H]-7-OH-DPAT); details: CHO cells expressing hD3R, geometric mean of 2-5 determinations unless marked b (single determination), read-out: hD3 in CHO cells Ki
human dopamine D3 receptor (hD3R), sequence (P35462 whole entry): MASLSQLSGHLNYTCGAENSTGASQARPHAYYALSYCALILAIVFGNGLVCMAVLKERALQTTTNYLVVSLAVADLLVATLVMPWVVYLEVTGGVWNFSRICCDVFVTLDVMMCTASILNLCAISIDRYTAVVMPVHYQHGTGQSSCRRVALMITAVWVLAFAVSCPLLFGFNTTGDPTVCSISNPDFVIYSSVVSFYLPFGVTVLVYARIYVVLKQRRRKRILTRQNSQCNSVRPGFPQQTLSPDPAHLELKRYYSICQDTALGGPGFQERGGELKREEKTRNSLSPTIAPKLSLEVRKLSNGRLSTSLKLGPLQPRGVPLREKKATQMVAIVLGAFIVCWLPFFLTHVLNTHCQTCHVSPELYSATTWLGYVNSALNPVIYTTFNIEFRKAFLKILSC
Procedure: as §1, §2, §3

human dopamine D2 receptor (hD2R), sequence (P14416 whole entry): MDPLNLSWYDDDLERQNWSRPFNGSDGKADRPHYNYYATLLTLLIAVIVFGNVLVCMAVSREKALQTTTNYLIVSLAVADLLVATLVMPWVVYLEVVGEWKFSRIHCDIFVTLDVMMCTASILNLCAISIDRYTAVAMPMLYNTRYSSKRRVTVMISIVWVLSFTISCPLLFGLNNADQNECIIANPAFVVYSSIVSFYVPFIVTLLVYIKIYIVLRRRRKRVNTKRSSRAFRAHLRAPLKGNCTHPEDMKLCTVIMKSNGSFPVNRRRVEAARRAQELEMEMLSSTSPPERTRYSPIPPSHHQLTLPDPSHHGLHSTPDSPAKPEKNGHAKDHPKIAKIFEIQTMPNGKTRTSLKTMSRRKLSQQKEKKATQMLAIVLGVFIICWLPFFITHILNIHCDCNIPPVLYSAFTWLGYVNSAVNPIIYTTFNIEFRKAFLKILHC

| SMILES | Ki [1] [nM] | Ki [2] [nM] |
| --- | --- | --- |
| COc1nc2c(cc1NS(=O)(=O)c1ccc([C@H]3CC[C@H](OC)CC3)cc1)CCN(C)CC2 [Example 38, 4-(trans-4-methoxycyclohexyl)-N-(2-methoxy-7-methyl-6,7,8,9-tetrahydro-5H-pyrido[2,3-d]azepin-3-yl)benzenesulfonamide] | 339 | 2.93 |
| CCO[C@H]1C[C@@](F)(c2ccc(S(=O)(=O)Nc3cc4c(nc3OC)CCN(CC)CC4)cc2)C1 [Example 48, 4-(trans-3-ethoxy-1-fluorocyclobutyl)-N-(7-ethyl-2-methoxy-6,7,8,9-tetrahydro-5H-pyrido[2,3-d]azepin-3-yl)benzenesulfonamide] | 933 | 7.25 |
| CCCN1CCc2cc(NS(=O)(=O)c3ccc(OCC)cc3)c(OC)nc2CC1 [Example 50, 4-ethoxy-N-(2-methoxy-7-propyl-6,7,8,9-tetrahydro-5H-pyrido[2,3-d]azepin-3-yl)benzenesulfonamide] | 337 | 3.2 |
| CCOc1ccc(S(=O)(=O)Nc2cc3c(nc2OC)CCN(CC)CC3)cc1 [Example 52, 4-ethoxy-N-(7-ethyl-2-methoxy-6,7,8,9-tetrahydro-5H-pyrido[2,3-d]azepin-3-yl)benzenesulfonamide] | 435 | 2.56 |
| CCN1CCc2cc(NS(=O)(=O)c3ccc(C)cc3)c(OC)nc2CC1 [Example 53, N-(7-ethyl-2-methoxy-6,7,8,9-tetrahydro-5H-pyrido[2,3-d]azepin-3-yl)-4-methylbenzenesulfonamide] | 313 | 2.75 |
| CCN1CCc2cc(NS(=O)(=O)c3ccc4c(c3)CCCO4)c(OC)nc2CC1 [Example 58, N-(7-ethyl-2-methoxy-6,7,8,9-tetrahydro-5H-pyrido[2,3-d]azepin-3-yl)-3,4-dihydro-2H-chromene-6-sulfonamide] | 760 | 4.4 |
| CCN1CCc2cc(NS(=O)(=O)c3ccc(OC(F)F)cc3)c(OC)nc2CC1 [Example 59, 4-(difluoromethoxy)-N-(7-ethyl-2-methoxy-6,7,8,9-tetrahydro-5H-pyrido[2,3-d]azepin-3-yl)benzenesulfonamide] | 2310 | 11.6 |
| CCN1CCc2cc(NS(=O)(=O)c3ccc(Oc4ccccc4)nc3)c(OC)nc2CC1 [Example 60, N-(7-ethyl-2-methoxy-6,7,8,9-tetrahydro-5H-pyrido[2,3-d]azepin-3-yl)-6-phenoxypyridine-3-sulfonamide] | 395 | 2.94 |
| CCN1CCc2cc(NS(=O)(=O)c3ccc(C)c(C)c3)c(OC)nc2CC1 [Example 61, N-(7-ethyl-2-methoxy-6,7,8,9-tetrahydro-5H-pyrido[2,3-d]azepin-3-yl)-3,4-dimethylbenzenesulfonamide] | 388 | 2.33 |
| CCN1CCc2cc(NS(=O)(=O)c3ccc(C)cc3C)c(OC)nc2CC1 [Example 65, N-(7-ethyl-2-methoxy-6,7,8,9-tetrahydro-5H-pyrido[2,3-d]azepin-3-yl)-2,4-dimethylbenzenesulfonamide] | 276 | 1.54 |
| CCN1CCc2cc(NS(=O)(=O)c3ccc4c(c3)CCCO4)c(OC(C)C)nc2CC1 [Example 66, N-[7-ethyl-2-(propan-2-yloxy)-6,7,8,9-tetrahydro-5H-pyrido[2,3-d]azepin-3-yl]-3,4-dihydro-2H-chromene-6-sulfonamide] | 1460 | 8.78 |
| CCN1CCc2cc(NS(=O)(=O)c3ccc4c(c3)CC(C)O4)c(OC)nc2CC1 (stereo not shown) [Example 67, N-(7-ethyl-2-methoxy-6,7,8,9-tetrahydro-5H-pyrido[2,3-d]azepin-3-yl)-2-methyl-2,3-dihydro-1-benzofuran-5-sulfonamide] | 660 | 4.02 |
| CCN1CCc2cc(NS(=O)(=O)c3ccc([C@H]4C[C@H](OC)C4)cc3)c(OC)nc2CC1 [Example 68, N-(7-ethyl-2-methoxy-6,7,8,9-tetrahydro-5H-pyrido[2,3-d]azepin-3-yl)-4-(trans-3-methoxycyclobutyl)benzenesulfonamide] | 338 | 1.26 |

The next compounds have a lower Ki [1] than those just listed; values first:

| Ki [1] [nM] | Ki [2] [nM] | SMILES |
| --- | --- | --- |
| 260 | 3.29 | COc1nc2c(cc1NS(=O)(=O)c1ccc(C3CCOC3)cc1)CCN(C)CC2 (stereo not shown) [Example 36, N-(2-methoxy-7-methyl-6,7,8,9-tetrahydro-5H-pyrido[2,3-d]azepin-3-yl)-4-(tetrahydrofuran-3-yl)benzenesulfonamide] |
| 260 | 3.21 | COc1nc2c(cc1NS(=O)(=O)c1ccc(O[C@@H]3CCOC3)cc1)CCN(C)CC2 [Example 37, N-(2-methoxy-7-methyl-6,7,8,9-tetrahydro-5H-pyrido[2,3-d]azepin-3-yl)-4-[(3R)-tetrahydrofuran-3-yloxy]benzenesulfonamide] |
| 131 | 1.79 | CCN1CCc2cc(NS(=O)(=O)c3ccc([C@@H]4CCCCO4)c(F)c3)c(OC)nc2CC1 [Example 43, N-(7-ethyl-2-methoxy-6,7,8,9-tetrahydro-5H-pyrido[2,3-d]azepin-3-yl)-3-fluoro-4-[(2S)-tetrahydro-2H-pyran-2-yl]benzenesulfonamide] |
| 162 | 2.25 | COc1nc2c(cc1NS(=O)(=O)c1ccc(C(C)C)cc1)CCN(CCCF)CC2 [Example 44, N-[7-(3-fluoropropyl)-2-methoxy-6,7,8,9-tetrahydro-5H-pyrido[2,3-d]azepin-3-yl]-4-(propan-2-yl)benzenesulfonamide] |
| 3.2 | 0.32 | COc1nc2c(cc1NS(=O)(=O)c1ccc(C3CCCCC3)cc1)CCN(C)CC2 [Example 45, 4-cyclohexyl-N-(2-methoxy-7-methyl-6,7,8,9-tetrahydro-5H-pyrido[2,3-d]azepin-3-yl)benzenesulfonamide] |
| 3.21 | 0.48 | COc1nc2c(cc1NS(=O)(=O)c1ccc(OC3CCCC3)cc1)CCN(C)CC2 [Example 46, 4-(cyclopentyloxy)-N-(2-methoxy-7-methyl-6,7,8,9-tetrahydro-5H-pyrido[2,3-d]azepin-3-yl)benzenesulfonamide] |
| 176 | 2.33 | COc1nc2c(cc1NS(=O)(=O)c1ccc(C(F)(F)C3CCCC3)nc1)CCN(C)CC2 [Example 47, 6-[cyclopentyl(difluoro)methyl]-N-(2-methoxy-7-methyl-6,7,8,9-tetrahydro-5H-pyrido[2,3-d]azepin-3-yl)pyridine-3-sulfonamide] |
| 102 | 0.88 | CCCN1CCc2cc(NS(=O)(=O)c3ccc(C(C)C)cc3)c(OC)nc2CC1 [Example 49, N-(2-methoxy-7-propyl-6,7,8,9-tetrahydro-5H-pyrido[2,3-d]azepin-3-yl)-4-(propan-2-yl)benzenesulfonamide] |
| 105 | 1.12 | CCN1CCc2cc(NS(=O)(=O)c3ccc(C(C)C)cc3)c(OC)nc2CC1 [Example 51, N-(7-ethyl-2-methoxy-6,7,8,9-tetrahydro-5H-pyrido[2,3-d]azepin-3-yl)-4-(propan-2-yl)benzenesulfonamide] |
| 14.4 | 0.38 | COc1nc2c(cc1NS(=O)(=O)c1ccc(C(C)C)cc1)CCN(C)CC2 [Example 54, N-(2-methoxy-7-methyl-6,7,8,9-tetrahydro-5H-pyrido[2,3-d]azepin-3-yl)-4-(propan-2-yl)benzenesulfonamide] |
| 29.1 | 0.52 | COc1nc2c(cc1NS(=O)(=O)c1ccc(C3(C(F)(F)F)CC3)cc1)CCN(C)CC2 [Example 55, N-(2-methoxy-7-methyl-6,7,8,9-tetrahydro-5H-pyrido[2,3-d]azepin-3-yl)-4-[1-(trifluoromethyl)cyclopropyl]benzenesulfonamide] |
| 162 | 2.12 | CCN1CCc2nc(OC)c(NS(=O)(=O)c3ccc(C(C)C)cc3)cc2C(C)C1 (stereo not shown) [Example 56, N-(7-ethyl-2-methoxy-5-methyl-6,7,8,9-tetrahydro-5H-pyrido[2,3-d]azepin-3-yl)-4-(propan-2-yl)benzenesulfonamide] |
| 229 | 3.14 | CCN1CCc2cc(NS(=O)(=O)c3ccc(C4CCOCC4)cc3)c(OC)nc2CC1 [Example 57, N-(7-ethyl-2-methoxy-6,7,8,9-tetrahydro-5H-pyrido[2,3-d]azepin-3-yl)-4-(tetrahydro-2H-pyran-4-yl)benzenesulfonamide] |
| 52.8 | 0.4 | CCCc1ccc(S(=O)(=O)Nc2cc3c(nc2OC)CCN(CC)CC3)cc1 [Example 62, N-(7-ethyl-2-methoxy-6,7,8,9-tetrahydro-5H-pyrido[2,3-d]azepin-3-yl)-4-propylbenzenesulfonamide] |
| 11.4 | 0.32 | CCN1CCc2cc(NS(=O)(=O)c3ccc(OC4CCCC4)cc3)c(OC)nc2CC1 [Example 63, 4-(cyclopentyloxy)-N-(7-ethyl-2-methoxy-6,7,8,9-tetrahydro-5H-pyrido[2,3-d]azepin-3-yl)benzenesulfonamide] |
| 21.2 | 0.48 | CCN1CCc2cc(NS(=O)(=O)c3ccc4c(c3)CCC(C)(C)O4)c(OC)nc2CC1 [Example 64, N-(7-ethyl-2-methoxy-6,7,8,9-tetrahydro-5H-pyrido[2,3-d]azepin-3-yl)-2,2-dimethyl-3,4-dihydro-2H-chromene-6-sulfonamide] |
